The values below come from ChEMBL document CHEMBL1201862, “PubChem BioAssay data set” (2004).

Common to all, as to experiment: DTP human tumour cell line panel, 48 h
Assay [1] deals with SNB-19.
The test system of assay [2] is SF-539.
For assay [3], the system named is 786-0.
For assay [4], the system named is IGROV-1.
The subject of assay [5] is MCF7.
The subject of assay [6] is UACC-257.
Assay [7] has as its system MDA-MB-231.
Assay [8] has as its system RPMI-8226.
The test system of assay [9] is COLO 205.
The subject of assay [10] is CCRF-CEM.
For assay [11], the system named is OVCAR-8.
The test system of assay [12] is RXF 393.
In assay [13] the test system is OVCAR-4.
Assay [14] deals with NCI-H522.
For assay [15], the system named is HL-60.
Assay [16] has as its system UO-31.
Assay [17] deals with HOP-92.
Assay [18] relates to BT-549.
Assay [19] relates to HCC 2998.

Usually GI50 stands for the concentration giving 50% growth inhibition.

Structures are written as SMILES.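 Cultured in 96-well plates, cells were exposed to test compound for 48 hours across five concentrations. The concentration for 50% growth inhibition is given as GI50.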 The source made the active and inactive calls. Cut-off read from the data, not from the text of the source: active = GI50 up to about 1.1 µM and inactive = higher. Residues, ends and D or L forms follow the SMILES beside them. *: point of attachment. Bn = c1ccc(C*)cc1

For `NCCSC1(O)C(=O)c2ccccc2-c2ccccc21` (centres undefined), the GI50 was 1.53 µM (inactive) in assay [1]; 1.15 µM (inactive) in [2]; 1.63 µM (inactive) in assay [3]; 1.8 µM (inactive) in assay [4]; 1.83 µM (inactive) in assay [5]; 0.435 µM (active) in [6]. The GI50 in assay [7] was 0.483 µM (active); in [8], 0.0348 µM (active); in assay [9], 1.85 µM (inactive); in assay [10] it was 0.158 µM (active); in assay [11] it was 0.262 µM (active); in assay [12], 1.64 µM (inactive). In addition, the concentration for 50% growth inhibition (GI50) in [13] is 0.207 µM (active); in assay [14], 1.55 µM (inactive); in [15], 1.09 µM (active); in assay [16], 1.47 µM (inactive).

Take `NC1CC(=O)c2cc(Cl)sc21` (centres undefined): the GI50 in assay [17], in assay [1], in assay [2], in [3], in assay [4] and in assay [6] was > 100 µM (inactive) each time. In addition, the GI50 in [7], in assay [9], in [10], in [11], in assay [18] and in [12] was > 100 µM (inactive) throughout. Further, the GI50 in [13], in assay [14], in [15] and in assay [16] was > 100 µM (inactive) throughout.

Turning to `CC(C)(C)OC(=O)NC(Cc1ccccc1)NC(=O)NC(=O)OCc1ccccc1` (centres undefined), the GI50 in [1] was 36.5 µM (inactive); in assay [2] it was 25.7 µM (inactive); in assay [3], 34.4 µM (inactive); in [4] it was > 100 µM (inactive); in [5] it was > 100 µM (inactive); in assay [6], 81.3 µM (inactive). Further, the GI50 in [8] was > 100 µM (inactive); in assay [11], 55.5 µM (inactive); in assay [18] it was 54.5 µM (inactive); in assay [12], 22 µM (inactive); in assay [14], 15.6 µM (inactive); in [16], > 100 µM (inactive). For the same compound, the GI50 in [19] was 40 µM (inactive).

Regarding `CNC(=O)CCNC(=O)CCC(=O)OC`, the GI50 in assay [1], in [2], in assay [3], in assay [5], in [7] and in [9] was > 100 µM (inactive) in each case. Moreover, the GI50 in assay [11], in assay [12], in assay [13] and in assay [16] was > 100 µM (inactive) in each case.

With `CN(C)CCNc1ccc([N+](=O)[O-])c2nc3ccccc3c(N)c12`, the GI50 is 0.547 µM (active) in assay [17]; 0.895 µM (active) in assay [1]; 0.536 µM (active) in assay [2]; 0.535 µM (active) in [3]; 0.456 µM (active) in assay [4]; > 10 µM (inactive) in assay [5]. The GI50 in assay [6] is 2.18 µM (inactive); in assay [7], 0.695 µM (active); in assay [8] it was 0.31 µM (active); in [9], 0.182 µM (active); in [10], 0.241 µM (active); in assay [11] it was 0.792 µM (active). For the same compound, the 50% growth inhibitory concentration (GI50) in assay [12] was 1.05 µM (active); in [13], 0.74 µM (active); in assay [15] it was 0.741 µM (active); in assay [16] it was 0.757 µM (active).

As to `O=c1oc2ccc3ccccc3c2cc1-c1cn2ccccc2n1`, the GI50 in assay [17] was 90.6 µM (inactive); in assay [2] it was 25.9 µM (inactive); in assay [3], 37.2 µM (inactive); in assay [4], > 100 µM (inactive); in [6] it was > 100 µM (inactive); in [7] it was 24.2 µM (inactive). The GI50 in assay [8] is > 100 µM (inactive); in assay [9] it was > 100 µM (inactive); in [10], > 100 µM (inactive); in assay [11], 51.3 µM (inactive); in assay [18], > 100 µM (inactive); in assay [12] it was > 100 µM (inactive). Further, the GI50 was 26.3 µM (inactive) in [14], > 100 µM (inactive) in [15], 20 µM (inactive) in assay [16] and > 100 µM (inactive) in [19].

Regarding `COC(=O)[C@H]1ON2O[C@@H](O[C@H]3CCCC[C@@H]3C(C)(C)c3ccccc3)C[C@@H]3CC[C@H]1[C@@]32C`, the GI50 in [17], in [3], in assay [4], in [5], in assay [6] and in assay [8] was > 100 µM (inactive) each time. For the same compound, the GI50 in assay [9], in assay [10], in assay [11], in [12], in [14] and in assay [15] was > 100 µM (inactive) in each case. The GI50 in assay [16] and in assay [19] was > 100 µM (inactive) each time.

`CN1CCC(O)(OC(=O)C(c2ccccc2)C2(O)CCCC2)CC1` (centres undefined): the GI50 in assay [17], in assay [1], in assay [2], in assay [3], in assay [4] and in assay [5] was > 100 µM (inactive) each time. Moreover, the GI50 in [6], in assay [7], in assay [8], in assay [9], in assay [10] and in assay [11] was > 100 µM (inactive) in each case. In addition, the GI50 in assay [12], in [13], in assay [14], in [15] and in assay [19] was > 100 µM (inactive) throughout.

With `O=CCC1CCCCC1`, the GI50 in assay [17], in assay [1], in assay [2], in [3], in assay [4] and in [6] was > 100 µM (inactive) in each case. Moreover, the GI50 in assay [7], in assay [8], in assay [9], in [18], in assay [12] and in [13] was > 100 µM (inactive) in each case. Also, the GI50 in [14] and in assay [16] was > 100 µM (inactive) throughout.

Turning to `O=C(/C=C(\C(=O)c1cccs1)c1cccs1)c1ccc(C(=O)/C=C(\C(=O)c2cccs2)c2cccs2)cc1`, the GI50 in assay [1], in [2], in assay [3], in assay [4], in [5] and in assay [6] was > 100 µM (inactive) throughout. The GI50 in assay [7], in assay [8], in assay [9], in assay [10], in [11] and in [12] was > 100 µM (inactive) each time. Further, the GI50 in assay [13], in [15], in assay [16] and in [19] was > 100 µM (inactive) in each case.

As to `O=C(NC(Nc1ccc(F)c(Cl)c1)(C(F)(F)F)C(F)(F)F)C(C(F)(F)F)C(F)(F)F`, the GI50 in assay [17] was 29.2 µM (inactive); in assay [1] it was 30.9 µM (inactive); in assay [2], 22.6 µM (inactive); in assay [3], 30.5 µM (inactive); in [4], 13.4 µM (inactive); in assay [5] it was 33 µM (inactive). In addition, the GI50 is 32.7 µM (inactive) in assay [6]; 28.3 µM (inactive) in assay [7]; 20 µM (inactive) in [8]; 28.5 µM (inactive) in [9]; 22.1 µM (inactive) in [10]; 25.9 µM (inactive) in [11]. Moreover, the GI50 in assay [12] was 23.2 µM (inactive); in [13], 29 µM (inactive); in assay [14], 16.8 µM (inactive); in assay [15], 15.6 µM (inactive); in [16], 19.5 µM (inactive); in [19], > 100 µM (inactive).

As to `COC(=O)C(CC(C)C)NC(=O)C(N)Cc1ccc(OCc2ccccc2)cc1` (centres undefined) (H-Tyr(Bn)-Leu-OMe; configuration not given here), the GI50 in [17], in [1], in assay [2], in [3], in assay [4] and in assay [6] was > 10 µM (inactive) in each case. Further, the GI50 in assay [7], in [8], in assay [9], in [10], in assay [11] and in assay [18] was > 10 µM (inactive) throughout. For the same compound, the GI50 in assay [12] is > 10 µM (inactive); in assay [13], > 10 µM (inactive); in assay [14], > 10 µM (inactive); in [15], 2.54 µM (inactive); in assay [16], > 10 µM (inactive); in assay [19], > 10 µM (inactive).

For the compound `C=C1C(=O)O[C@@H]2[C@H]1CC[C@H](C)[C@]1(O)CCC(=O)[C@@]21C` [CORONOPILIN], the GI50 in assay [17], in assay [1], in assay [2], in assay [3], in assay [4] and in assay [5] was > 10 µM (inactive) throughout. The GI50 was > 10 µM (inactive) in assay [8]; > 10 µM (inactive) in assay [9]; 4.69 µM (inactive) in [10]; > 10 µM (inactive) in [11]; > 10 µM (inactive) in assay [12]; > 10 µM (inactive) in [13]. Also, the figures for the GI50 in [15], in assay [16] and in assay [19] were 3.66 µM (inactive), 0.0094 µM (active) and > 10 µM (inactive), respectively.
